Laboratory results as given in ChEMBL document CHEMBL5154921, “Discovery and Characterization of the First Nonpeptide Antagonists for the Relaxin-3/RXFP3 System” (J Med Chem, 2022).
Calls of active or inactive are those of the source. The rule behind the calls is not given here.

Legend:
[1] = molecular target: Relaxin-3 receptor 1 (Homo sapiens) (UniProt Q9NSD7); assay: Negative allosteric modulator activity at human RXFP3 expressed in CHO-K1 cells assessed as forskolin-induced cAMP accumulation at 3 to 30 uM measured after 30 mins in presence of relaxin-3 by TR-FRET assay; assay type: functional, cell-based; conditions: filed as negative allosteric modulator, dose 3-30 µM
Sequence of Relaxin-3 receptor 1 (Homo sapiens) (Q9NSD7 whole entry): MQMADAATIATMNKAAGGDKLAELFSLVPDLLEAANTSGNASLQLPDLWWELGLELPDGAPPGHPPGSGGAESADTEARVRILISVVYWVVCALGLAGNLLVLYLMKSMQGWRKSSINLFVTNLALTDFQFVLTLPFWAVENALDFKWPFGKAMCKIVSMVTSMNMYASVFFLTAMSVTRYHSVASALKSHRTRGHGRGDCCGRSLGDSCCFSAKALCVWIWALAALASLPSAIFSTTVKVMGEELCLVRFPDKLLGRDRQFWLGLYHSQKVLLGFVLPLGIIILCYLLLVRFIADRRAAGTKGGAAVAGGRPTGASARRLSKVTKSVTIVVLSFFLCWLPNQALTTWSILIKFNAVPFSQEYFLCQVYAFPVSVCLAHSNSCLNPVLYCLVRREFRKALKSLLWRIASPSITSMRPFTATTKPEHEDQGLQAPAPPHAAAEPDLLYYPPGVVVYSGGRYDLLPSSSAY

[2] = organism: Homo sapiens; assay: Inhibition of GABAA receptor (unknown origin) at 10 uM relative to control
[3] = molecular target: Histamine H4 receptor (Homo sapiens) (UniProt Q9H3N8); assay: Inhibition of histamine H4 receptor (unknown origin) at 10 uM relative to control
[4] = molecular target: Beta-1 adrenergic receptor (Homo sapiens) (UniProt P08588); assay: Inhibition of adrenergic beta-1 receptor (unknown origin) at 10 uM relative to control
[5] = molecular target: Alpha-2B adrenergic receptor (Homo sapiens) (UniProt P18089); assay: Inhibition of adrenergic alpha-2B receptor (unknown origin) at 10 uM relative to control
Sequence of Alpha-2B adrenergic receptor (Homo sapiens) (P18089 whole entry): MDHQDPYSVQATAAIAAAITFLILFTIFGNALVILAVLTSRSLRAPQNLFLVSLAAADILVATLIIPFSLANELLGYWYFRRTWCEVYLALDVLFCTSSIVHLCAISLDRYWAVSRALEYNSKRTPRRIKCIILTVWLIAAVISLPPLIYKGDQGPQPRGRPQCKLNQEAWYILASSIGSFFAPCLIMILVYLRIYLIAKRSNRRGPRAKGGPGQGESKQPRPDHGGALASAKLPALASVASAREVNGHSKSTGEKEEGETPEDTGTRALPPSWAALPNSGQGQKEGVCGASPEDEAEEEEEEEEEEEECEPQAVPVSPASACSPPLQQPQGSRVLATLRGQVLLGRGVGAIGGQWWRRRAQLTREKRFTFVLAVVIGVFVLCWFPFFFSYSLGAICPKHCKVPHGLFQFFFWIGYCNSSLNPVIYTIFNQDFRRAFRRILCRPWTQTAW

[6] = molecular target: 5-hydroxytryptamine receptor 1E (Homo sapiens) (UniProt P28566); assay: Inhibition of serotonin 5-HT1E receptor (unknown origin) at 10 uM relative to control
[7] = molecular target: Sigma intracellular receptor 2 (Homo sapiens, UniProt Q5BJF2); assay: Inhibition of sigma-2 receptor (unknown origin) at 10 uM relative to control
Sequence of Sigma intracellular receptor 2 (Q5BJF2 whole entry): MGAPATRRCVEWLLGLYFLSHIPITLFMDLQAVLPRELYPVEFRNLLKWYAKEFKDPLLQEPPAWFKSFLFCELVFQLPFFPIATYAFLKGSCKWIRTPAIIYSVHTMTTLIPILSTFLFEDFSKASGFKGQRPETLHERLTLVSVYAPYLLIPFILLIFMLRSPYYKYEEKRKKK

[8] = Cmax in Wistar rat plasma at 10 mg/kg, ip measured upto 8 hrs post dose by LC-MS/MS analysis; assay type: ADME, organism-based; design: time < 8 hrs, dose 10 mg/kg, route ip; conditions: in vivo
[9] = molecular target: Relaxin-3 receptor 1 (Homo sapiens) (UniProt Q9NSD7); assay: Negative allosteric modulator activity at human RXFP3 expressed in CHO-K1 cells assessed as [35S]GTPgammaS binding at 10 to 30 uM incubated for 1 hr by [35S]GTP-gammaS binding assay; assay type: functional, cell-based; conditions: filed as negative allosteric modulator, dose 10-30 µM
[10] = molecular target: D(1A) dopamine receptor (Homo sapiens) (UniProt P21728); assay: Inhibition of dopamine D1 receptor (unknown origin) at 10 uM relative to control
[11] = Cmax in Wistar rat brain at 10 mg/kg, ip measured upto 8 hrs post dose by LC-MS/MS analysis; assay type: ADME, organism-based; design: time < 8 hrs, dose 10 mg/kg, route ip
[12] = molecular target: 5-hydroxytryptamine receptor 2B (Homo sapiens) (UniProt P41595); assay: Inhibition of serotonin 5-HT2B receptor (unknown origin) at 10 uM relative to control
[13] = molecular target: Alpha-2A adrenergic receptor (Homo sapiens) (UniProt P08913); assay: Inhibition of adrenergic alpha-2A receptor (unknown origin) at 10 uM relative to control
Sequence of Alpha-2A adrenergic receptor (Homo sapiens) (P08913 whole entry): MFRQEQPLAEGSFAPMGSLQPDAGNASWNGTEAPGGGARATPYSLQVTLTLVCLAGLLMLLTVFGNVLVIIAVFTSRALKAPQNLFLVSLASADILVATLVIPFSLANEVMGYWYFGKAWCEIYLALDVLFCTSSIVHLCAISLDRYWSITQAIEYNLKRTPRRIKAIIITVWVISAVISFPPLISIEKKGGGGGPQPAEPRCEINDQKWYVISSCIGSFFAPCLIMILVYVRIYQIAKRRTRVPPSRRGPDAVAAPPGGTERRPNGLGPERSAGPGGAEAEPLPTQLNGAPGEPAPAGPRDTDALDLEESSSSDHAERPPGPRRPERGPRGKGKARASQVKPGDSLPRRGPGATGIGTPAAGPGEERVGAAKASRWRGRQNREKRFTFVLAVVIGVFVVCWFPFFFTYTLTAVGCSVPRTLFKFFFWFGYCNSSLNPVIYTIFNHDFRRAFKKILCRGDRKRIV

[14] = AUCinfinity in Wistar rat plasma at 10 mg/kg, ip measured upto 8 hrs post dose by LC-MS/MS analysis; assay type: ADME, organism-based; design: dose 10 mg/kg, time < 8 hrs, route ip; conditions: in vivo
[15] = molecular target: Beta-3 adrenergic receptor (Homo sapiens) (UniProt P13945); assay: Inhibition of adrenergic beta-3 receptor (unknown origin) at 10 uM relative to control
Sequence of Beta-3 adrenergic receptor (Homo sapiens) (P13945 whole entry, looked up): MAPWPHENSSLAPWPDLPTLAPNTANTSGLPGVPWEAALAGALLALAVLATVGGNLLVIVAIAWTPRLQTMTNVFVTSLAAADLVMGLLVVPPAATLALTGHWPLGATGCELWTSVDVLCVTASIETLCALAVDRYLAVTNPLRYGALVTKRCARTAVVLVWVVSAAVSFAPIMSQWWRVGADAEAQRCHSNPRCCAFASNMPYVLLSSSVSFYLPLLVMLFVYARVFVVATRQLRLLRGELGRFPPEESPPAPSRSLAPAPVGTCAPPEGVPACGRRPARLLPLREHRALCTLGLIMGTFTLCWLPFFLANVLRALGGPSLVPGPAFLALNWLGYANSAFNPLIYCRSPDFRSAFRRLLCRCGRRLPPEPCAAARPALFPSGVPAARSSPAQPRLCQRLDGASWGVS

[16] = tested on: Rattus norvegicus; assay: In vivo antagonist activity at RXFP3 in Wistar rat assessed as decrease in R3/I5 induced food intake at 10 mg/kg, ip administered 1 hr prior to R3/I5 treatment and measured after 2 hrs; assay type: functional, organism-based; conditions: time 3.0 hrs
[17] = molecular target: Relaxin-3 receptor 2 (Homo sapiens) (UniProt Q8TDU9); assay: Antagonist activity at human RXFP4 expressed […]-K1 cells assessed as forskolin-induced cAMP accumulation at 100 uM incubated for 30 mins in presence of relaxin 3 relative to control; assay type: functional, cell-based; design: scale not given: the % may be the effect or the level left
[18] = molecular target: Delta-type opioid receptor (Homo sapiens) (UniProt P41143); assay: Inhibition of opioid delta receptor (unknown origin) at 10 uM relative to control
[19] = molecular target: Muscarinic acetylcholine receptor M3 (Homo sapiens) (UniProt P20309); assay: Inhibition of muscarinic M3 receptor (unknown origin) at 10 uM relative to control
Sequence of Muscarinic acetylcholine receptor M3 (Homo sapiens) (P20309 whole entry, looked up): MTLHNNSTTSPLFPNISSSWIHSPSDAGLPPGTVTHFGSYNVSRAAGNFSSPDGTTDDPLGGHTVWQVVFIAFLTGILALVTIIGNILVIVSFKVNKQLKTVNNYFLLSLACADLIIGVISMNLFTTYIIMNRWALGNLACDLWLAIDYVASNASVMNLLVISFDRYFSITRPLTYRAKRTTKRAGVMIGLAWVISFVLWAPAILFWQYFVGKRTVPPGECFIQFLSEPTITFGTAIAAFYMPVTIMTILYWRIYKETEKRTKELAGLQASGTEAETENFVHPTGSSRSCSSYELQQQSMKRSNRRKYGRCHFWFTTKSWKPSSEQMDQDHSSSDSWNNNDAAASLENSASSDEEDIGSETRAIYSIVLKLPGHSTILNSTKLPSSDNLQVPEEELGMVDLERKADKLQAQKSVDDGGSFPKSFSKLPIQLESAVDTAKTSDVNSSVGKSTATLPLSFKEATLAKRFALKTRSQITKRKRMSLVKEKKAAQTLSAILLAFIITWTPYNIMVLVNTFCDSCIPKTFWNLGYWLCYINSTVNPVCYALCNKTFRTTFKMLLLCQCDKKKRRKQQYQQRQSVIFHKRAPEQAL

[20] = molecular target: 5-hydroxytryptamine receptor 1D (Homo sapiens) (UniProt P28221); assay: Inhibition of serotonin 5-HT1D receptor (unknown origin) at 10 uM relative to control
[21] = molecular target: Alpha-1A adrenergic receptor (Homo sapiens) (UniProt P35348); assay: Inhibition of adrenergic alpha-1A receptor (unknown origin) at 10 uM relative to control
Sequence of Alpha-1A adrenergic receptor (Homo sapiens) (P35348 whole entry): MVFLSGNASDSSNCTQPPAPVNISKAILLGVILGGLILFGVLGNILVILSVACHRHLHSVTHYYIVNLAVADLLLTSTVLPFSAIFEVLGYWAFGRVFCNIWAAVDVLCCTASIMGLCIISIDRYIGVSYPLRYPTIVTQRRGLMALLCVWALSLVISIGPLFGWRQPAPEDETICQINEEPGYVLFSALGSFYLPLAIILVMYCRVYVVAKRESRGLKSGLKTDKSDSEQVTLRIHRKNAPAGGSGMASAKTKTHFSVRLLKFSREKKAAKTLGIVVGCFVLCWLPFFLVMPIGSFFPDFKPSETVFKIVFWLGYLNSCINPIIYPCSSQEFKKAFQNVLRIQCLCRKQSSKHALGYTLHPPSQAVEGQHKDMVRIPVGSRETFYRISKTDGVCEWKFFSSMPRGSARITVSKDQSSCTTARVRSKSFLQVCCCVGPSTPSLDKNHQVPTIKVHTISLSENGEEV

[22] = molecular target: 5-hydroxytryptamine receptor 1B (Homo sapiens) (UniProt P28222); assay: Inhibition of serotonin 5-HT1B receptor (unknown origin) at 10 uM relative to control
[23] = Tmax in Wistar rat brain at 10 mg/kg, ip measured upto 8 hrs post dose by LC-MS/MS analysis; assay type: ADME, organism-based; conditions: in vivo
[24] = molecular target: 5-hydroxytryptamine receptor 7 (Homo sapiens) (UniProt P34969); assay: Inhibition of serotonin 5-HT7A receptor (unknown origin) at 10 uM relative to control
[25] = molecular target: Alpha-1D adrenergic receptor (Homo sapiens) (UniProt P25100); assay: Inhibition of adrenergic alpha-1D receptor (unknown origin) at 10 uM relative to control
[26] = molecular target: Histamine H3 receptor (Homo sapiens) (UniProt Q9Y5N1); assay: Inhibition of histamine H3 receptor (unknown origin) at 10 uM relative to control
[27] = AUCinfinity in Wistar rat brain at 10 mg/kg, ip measured upto 8 hrs post dose by LC-MS/MS analysis; assay type: ADME, organism-based; design: dose 10 mg/kg, time < 8 hrs, route ip
[28] = Unbound clearence in Wistar rat plasma at 10 mg/kg, ip measured upto 8 hrs post dose by LC-MS/MS analysis; assay type: ADME, organism-based; conditions: in vivo
[29] = molecular target: Muscarinic acetylcholine receptor M4 (Homo sapiens) (UniProt P08173); assay: Inhibition of muscarinic M4 receptor (unknown origin) at 10 uM relative to control
Sequence of Muscarinic acetylcholine receptor M4 (Homo sapiens) (P08173 whole entry): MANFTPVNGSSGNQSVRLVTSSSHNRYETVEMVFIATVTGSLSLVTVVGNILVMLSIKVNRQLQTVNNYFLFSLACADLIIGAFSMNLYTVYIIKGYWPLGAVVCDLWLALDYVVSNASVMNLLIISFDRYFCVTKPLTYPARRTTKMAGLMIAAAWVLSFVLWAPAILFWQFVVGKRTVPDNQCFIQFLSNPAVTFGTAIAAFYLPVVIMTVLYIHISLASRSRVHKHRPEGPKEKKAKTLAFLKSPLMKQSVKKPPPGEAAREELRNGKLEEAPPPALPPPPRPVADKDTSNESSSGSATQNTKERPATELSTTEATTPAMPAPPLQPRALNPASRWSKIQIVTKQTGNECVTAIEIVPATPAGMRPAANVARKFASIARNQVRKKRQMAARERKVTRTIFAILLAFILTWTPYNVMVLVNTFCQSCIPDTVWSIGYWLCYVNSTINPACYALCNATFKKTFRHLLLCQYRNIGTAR

[30] = Kinetic aqueous solubility of the compound in PBS at pH 7.4 measured after 2 hrs by LC/MS-MS method; assay type: physicochemical; conditions: buffer, pH 7.4, 2 h
[31] = molecular target: D(1B) dopamine receptor (Homo sapiens) (UniProt P21918); assay: Inhibition of dopamine D5 receptor (unknown origin) at 10 uM relative to control
Sequence of D(1B) dopamine receptor (Homo sapiens) (P21918 whole entry): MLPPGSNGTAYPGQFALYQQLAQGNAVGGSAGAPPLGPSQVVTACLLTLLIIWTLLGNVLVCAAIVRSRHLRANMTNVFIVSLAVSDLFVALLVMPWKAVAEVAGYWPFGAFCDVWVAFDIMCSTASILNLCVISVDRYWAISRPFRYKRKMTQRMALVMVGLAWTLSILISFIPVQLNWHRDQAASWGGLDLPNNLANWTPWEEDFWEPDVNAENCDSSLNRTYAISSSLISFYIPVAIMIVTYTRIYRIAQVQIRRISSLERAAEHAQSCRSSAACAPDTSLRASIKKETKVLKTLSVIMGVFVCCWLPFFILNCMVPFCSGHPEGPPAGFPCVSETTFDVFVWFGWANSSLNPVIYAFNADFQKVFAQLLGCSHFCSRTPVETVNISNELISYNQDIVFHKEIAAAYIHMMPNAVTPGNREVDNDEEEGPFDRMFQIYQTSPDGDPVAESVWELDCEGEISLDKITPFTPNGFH

[32] = molecular target: 5-hydroxytryptamine receptor 2A (Homo sapiens) (UniProt P28223); assay: Inhibition of serotonin 5-HT2A receptor (unknown origin) at 10 uM relative to control
[33] = Ratio of AUC in brain to plasma or Wistar rat at 10 mg/kg, ip measured upto 8 hrs post dose by LC-MS/MS analysis; assay type: ADME, organism-based
[34] = molecular target: Sodium-dependent noradrenaline transporter (Homo sapiens) (UniProt P23975); assay: Inhibition of NET receptor (unknown origin) at 10 uM relative to control
Sequence of Sodium-dependent noradrenaline transporter (Homo sapiens) (P23975 whole entry): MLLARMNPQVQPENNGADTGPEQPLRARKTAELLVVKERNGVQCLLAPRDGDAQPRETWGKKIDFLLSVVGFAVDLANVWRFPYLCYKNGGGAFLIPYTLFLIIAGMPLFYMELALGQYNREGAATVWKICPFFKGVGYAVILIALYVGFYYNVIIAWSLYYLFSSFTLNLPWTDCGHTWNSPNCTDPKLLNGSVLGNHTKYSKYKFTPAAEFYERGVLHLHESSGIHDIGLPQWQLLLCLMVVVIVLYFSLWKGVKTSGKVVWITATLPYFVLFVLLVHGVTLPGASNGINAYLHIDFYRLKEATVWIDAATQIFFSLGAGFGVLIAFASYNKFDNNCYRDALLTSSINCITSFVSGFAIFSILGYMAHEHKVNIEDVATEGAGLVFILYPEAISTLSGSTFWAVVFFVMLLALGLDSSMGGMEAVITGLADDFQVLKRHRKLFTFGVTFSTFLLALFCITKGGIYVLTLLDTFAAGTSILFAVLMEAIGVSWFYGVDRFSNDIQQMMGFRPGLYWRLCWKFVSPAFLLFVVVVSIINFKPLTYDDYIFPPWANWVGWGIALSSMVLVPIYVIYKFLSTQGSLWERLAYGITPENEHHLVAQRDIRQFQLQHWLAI

[35] = molecular target: 5-hydroxytryptamine receptor 1A (Homo sapiens) (UniProt P08908); assay: Inhibition of serotonin 5-HT1A receptor (unknown origin) at 10 uM relative to control
[36] = molecular target: 5-hydroxytryptamine receptor 5A (Homo sapiens) (UniProt P47898); assay: Inhibition of serotonin 5-HT5A receptor (unknown origin) at 10 uM relative to control
[37] = molecular target: Alpha-1B adrenergic receptor (Homo sapiens) (UniProt P35368); assay: Inhibition of adrenergic alpha-1B receptor (unknown origin) at 10 uM relative to control
[38] = molecular target: Histamine H2 receptor (Homo sapiens) (UniProt P25021); assay: Inhibition of histamine H2 receptor (unknown origin) at 10 uM relative to control
Sequence of Histamine H2 receptor (Homo sapiens) (P25021 whole entry): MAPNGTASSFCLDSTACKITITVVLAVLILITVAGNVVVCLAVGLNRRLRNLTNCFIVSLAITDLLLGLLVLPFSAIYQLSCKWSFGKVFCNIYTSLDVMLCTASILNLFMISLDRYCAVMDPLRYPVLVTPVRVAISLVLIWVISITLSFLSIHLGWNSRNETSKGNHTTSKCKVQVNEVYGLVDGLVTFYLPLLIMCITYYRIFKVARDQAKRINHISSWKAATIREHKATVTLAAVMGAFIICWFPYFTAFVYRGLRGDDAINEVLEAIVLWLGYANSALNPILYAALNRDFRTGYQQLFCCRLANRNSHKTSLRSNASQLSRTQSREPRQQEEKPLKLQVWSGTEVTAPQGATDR

[39] = Half life in Wistar rat brain at 10 mg/kg, ip measured upto 8 hrs post dose by LC-MS/MS analysis; assay type: ADME, organism-based; conditions: in vivo

Question: With `O=C(Nc1ccc(-c2nc(-c3ccc(Cl)cc3)no2)cc1)C1CC(=O)N(Cc2ccco2)C1` (centres undefined) as the molecule, how does the Activity [1] read?
Answer: Its Activity is “Active”.

Question: And the inhibition [2]?
Answer: Its inhibition is < 50%.

Question: What about the inhibition [3] of the same molecule?
Answer: The inhibition was < 50%.

Question: What about the inhibition [4] of the same molecule?
Answer: The inhibition was < 50%.

Question: What about the inhibition [5] of the same molecule?
Answer: The inhibition was < 50%.

Question: And the inhibition [6]?
Answer: Its inhibition is < 50%.

Question: What about the inhibition [7] of the same molecule?
Answer: Its inhibition is 95%.

Question: What about the Cmax [8] of the same molecule?
Answer: Its Cmax is 1401 ng/mL.

Question: And the Activity [9]?
Answer: Its Activity is “Active”.

Question: And the inhibition [10]?
Answer: The inhibition was < 50%.

Question: What about the Cmax [11] of the same molecule?
Answer: Its Cmax is 1550 ng/mL.

Question: And the inhibition [12]?
Answer: The inhibition was < 50%.

Question: And the inhibition [13]?
Answer: The inhibition was < 50%.

Question: What about the AUC [14] of the same molecule?
Answer: The AUC was 5352 ng·h/mL.

Question: What about the inhibition [15] of the same molecule?
Answer: The inhibition was < 50%.

Question: What about the Activity [16] of the same molecule?
Answer: Its Activity is “Active”.

Question: What about the Activity [17] of the same molecule?
Answer: Its Activity is < 30%.

Question: What about the inhibition [18] of the same molecule?
Answer: Its inhibition is < 50%.

Question: What about the inhibition [19] of the same molecule?
Answer: The inhibition was < 50%.

Question: And the inhibition [20]?
Answer: Its inhibition is < 50%.

Question: What about the inhibition [21] of the same molecule?
Answer: The inhibition was < 50%.

Question: And the inhibition [22]?
Answer: Its inhibition is < 50%.

Question: What about the Tmax [23] of the same molecule?
Answer: The Tmax was 2 h.

Question: And the inhibition [24]?
Answer: Its inhibition is < 50%.

Question: And the inhibition [25]?
Answer: The inhibition was < 50%.

Question: What about the inhibition [26] of the same molecule?
Answer: The inhibition was < 50%.

Question: What about the AUC(0-inf) [27] of the same molecule?
Answer: The AUC(0-inf) was 12.5 ng·h/mL.

Question: And the CL free [28]?
Answer: The CL free was 43.8 mL/min/kg.

Question: And the inhibition [29]?
Answer: Its inhibition is < 50%.

Question: And the Kinetic_solubility [30]?
Answer: The Kinetic_solubility was < 1 µM.

Question: And the inhibition [31]?
Answer: The inhibition was < 50%.

Question: What about the inhibition [32] of the same molecule?
Answer: Its inhibition is < 50%.

Question: And the Ratio [33]?
Answer: Its Ratio is 2.3.

Question: What about the inhibition [34] of the same molecule?
Answer: Its inhibition is < 50%.

Question: What about the inhibition [35] of the same molecule?
Answer: Its inhibition is < 50%.

Question: What about the inhibition [36] of the same molecule?
Answer: Its inhibition is < 50%.

Question: What about the inhibition [37] of the same molecule?
Answer: The inhibition was < 50%.

Question: What about the inhibition [38] of the same molecule?
Answer: The inhibition was < 50%.

Question: What about the t1/2 [39] of the same molecule?
Answer: Its t1/2 is 4.9 h.
